Results on three molecules are retold here after paper PMC6823370, “A novel nucleoside rescue metabolic pathway may be responsible for therapeutic effect of orally administered cordycepin” (Scientific Reports, 2019).

Structures are written as SMILES. Like-named read-outs stand apart in the source and are kept apart here.

The subject of one data set is RAW264.7 cells. Description: Repression of inflammatory gene expression in LPS-stimulated RAW264.7 cells (qPCR). It counts as cell-based, mouse. The settings on record: for effect of pre-treatment on the inhibitory effect of cordycepin on inflammatory gene expression: LPS. As to the method: RAW 264.7 mouse macrophage cells were cultured in DMEM supplemented with 10% FBS. Prior to experiments, cells were washed with PBS and cells were maintained in DMEM with 0.5% FBS or 10% FBS for 24 h. LPS was added at 1 µg/mL, 1 h before compound treatment, when needed. When the cells were analysed for concentration levels of cordycepin, 3′-deoxyinosine and CordyTP, the cells were washed twice with PBS. The cells were then treated with methanol and mixed vigorously before the mixture was harvested. The mixture was filtered using filter tubes mentioned above and the filtrate was analysed by liquid chromatography coupled with tandem mass spectrometry (LC-MS/MS). For determination of relative mRNA levels, RNA was isolated from the lysates using an RNA isolation kit, following manufacturer’s protocol (Promega, Madison, WI, cat no. Z6012). RNA was reverse transcribed to cDNA using SuperScript™ III reverse transcriptase (Invitrogen, Carlsbad, CA). Quantitative polymerase chain reaction (qPCR), was performed with Qiagen Rotor-Gene Q qPCR machine (Qiagen, Hilden, Germany) using Promega SYBR Green GoTaq® qPCR master mix (Promega).
Figure 3 Repression effect on inflammatory gene expression. (a) NBTI or ITu treatment prior to cordycepin treatment suppresses effect of cordycepin. RAW264.7 cells were treated with 10 µM NBTI, 100 nM ITu or DMSO (Ctrl, control) 15 min prior to cordycepin treatment. The cells were stimulated with LPS 1 h after cordycepin treatment (mean ± SD, n = 3). **p < 0.01; ***p < 0.001 compared to DMSO treatment (labelled as Ctrl). (b) 3′-deoxyinosine exerts same repression effect as cordycepin, although to a lesser degree. RAW264.7 cells were treated with 20 µM cordycepin, 20 µM 3′-deoxyinosine (3DI) or DMSO (Ctrl, control) for 1 h prior to LPS stimulation (mean ± SD, n = 3). **p < 0.01; ***p < 0.001 compared to without compound treatment (labelled as LPS).

A further data set can be described thus: Caco-2 permeability. The conditions noted are these: human, Caco-2; read-out: Papp of 3′-deoxyinosine, A to B. The format is in vitro ADME. As to the method: (§1) Caco-2 permeability assays were conducted following previously reported methods with 21-day maintenance on the Corning 24-well Transwell® (Fisher Scientific, Loughborough, UK)[48]. […] Both directions of apical-to-basolateral and basolateral-to-apical were tested. […] The experiments were conducted in triplicates.
(§2) Samples from Caco-2 permeability, in vitro determination of CordyTP formation and in vivo experiments were subjected to protein precipitation followed by LC-MS/MS analysis. To 50 µL of rat plasma sample, 150 µL of internal standard solution (1.67 µg/mL 2-chloroadenosine in methanol) was added. The samples were then vortex-mixed for 10 s and were centrifuged for 3 min at 17949 g. Supernatant (20 µL) was collected and diluted 10-fold with DDW before injection into the LC-MS/MS for analysis of cordycepin and 3′-deoxyinosine. For analysis of CordyTP, the supernatant was filtered using filter tubes mentioned above and injected without dilution. Tissue samples were homogenised using Bullet Blender Gold (Next Advance, Inc., Troy, NY) in methanol (1:3 w/v) and centrifuged for 3 min at 17949 g. The supernatant was filtered and injected for analysis of CordyTP or diluted 10-fold with DDW for analysis of cordycepin and 3′-deoxyinosine. The LC-MS/MS system was a API4000 QTrap (AB Sciex, Warrington, UK) equipped with HPLC setup of SCL10Avp controller, LC10ADvp pump and SILHTC autosampler (Shimadzu, Milton Keynes, UK). Three different methods were utilised for each compound and multiple reaction monitoring parameters of the MS/MS conditions are shown in Table 1. The HPLC conditions including stationary phases and specific mass spectrometry parameters are shown in Supplementary Information 2. The LC-MS/MS method for cordycepin was fully validated in terms of accuracy, precision, sensitivity, selectivity, linearity and sample storage stability in accordance with the Guidance for Industry, Bioanalytical Method Validation, (2018) published by the US FDA (refer to Supplementary Information 3 for validation procedures and results)[53].
(In general: Caco-2 cells form a polarised layer with tight junctions and transporters.)

In another data set the test system is Caco-2 cells. Description: Caco-2 permeability. The format is in vitro ADME. The conditions noted are these: cells treated with cordycepin in the absence of pentostatin. As to the method:
as §1, §2

Data set [1] in a line: In vivo pharmacokinetics in rats after intravenous or oral cordycepin. The conditions noted are these: male, Sprague Dawley; for C0: in vivo, read-out: C0 of 3′-deoxyinosine; for Vd: plasma, rat, read-out: Vss of 3′-deoxyinosine. More on the design: species or system Sprague Dawley rats. On the procedure:
Protocols for the animal experiments in this study were reviewed and approved by the University of Nottingham Ethical Review Committee in accordance with the Animals [Scientific Procedures] Act 1986. Four male Sprague Dawley rats (Charles River Laboratories, UK) of 300–350 g body weight were used. The animals were housed in the Bio Support Unit, University of Nottingham at controlled temperature, 12 h light/dark cycle and free access to food and water. The animals were allowed to acclimatise for at least six days prior to any procedures.
Prior to pharmacokinetic studies, jugular vein cannulation surgery was performed under general anaesthesia (<3% isoflurane inhalation) for blood sampling or intravenous drug administration. Following two nights of recovery from surgery, the animals were intravenously or orally administered with the PBS-based formulation (5.5 mg/mL cordycepin) developed in a previously reported study. The dose was 8 or 20 mg/kg for intravenous administration and 8 or 80 mg/kg for oral administration. […] When whole blood was analysed, an aliquot was withdrawn immediately after mixing with the pretreated pentostatin. Otherwise, the mixture was centrifuged (3000 g, 10 min) to obtain plasma and samples were stored within the storage conditions tested prior to analysis.
as §2
Data are presented as mean ± standard deviation (SD). A two-tailed unpaired t-test was applied for assessment of statistical significance of differences between two groups. For three or more groups, the statistical significance was assessed by application of a one-way ANOVA followed by Tukey’s multiple comparisons test. A p-value lower than 0.05 was deemed statistically significant. Statistical analyses were conducted using GraphPad Prism version 7.01 (GraphPad Software, Inc., La Jolla, CA, USA). Pharmacokinetic parameters were obtained by non-compartmental analysis using Phoenix WinNonlin 6.3 software (Pharsight, Mountain View, CA, USA).
For calculation of pharmacokinetic parameters, the plasma concentration-time curve was plotted in a semi-log scale. From the plot, the elimination rate constant (ke) was calculated. Elimination half-life (t1/2) wasthen calculated using the following equation: […]

By Papp A→B is commonly meant how fast a substance crosses the layer from the apical side. As a reminder, the Cmax is the peak of the concentration-time curve. In the case of `OC[C@@H]1C[C@@H](O)[C@H](n2cnc3c(O)ncnc32)O1` [3′-deoxyinosine], the “effect on expression of inflammatory genes” value in the data set on RAW264.7 cells (20 µM, 1 h prior to LPS stimulation) is “suppressed expression of inflammatory genes”. For the same molecule, in “Caco-2 permeability”, the Papp A→B at 120 min, 200 µM was ~0.2 ×10⁻⁶ cm/s. Besides, the “permeation of 3′-deoxyinosine” value with Caco-2 cells is on record as “detected”. Besides, the C0 in data set [1] (rat plasma, intravenous cordycepin 8 mg/kg) came out at 5730 ± 1630 ng/mL; in data set [1] (rat plasma, intravenous cordycepin 20 mg/kg), 16300 ± 3870 ng/mL. Further, the Vd in data set [1] (intravenous cordycepin 8 mg/kg) worked out at 2.8 ± 0.3 L/kg; in data set [1] (intravenous cordycepin 20 mg/kg), 3 ± 0.7 L/kg. For the same molecule, the Cmax in data set [1] (rat plasma, oral cordycepin 8 mg/kg, read-out: Cmax of 3′-deoxyinosine) came to 202 ± 98 ng/mL.
Turning to `O=[N+]([O-])c1ccc(CSc2ncnc3c2ncn3[C@@H]2O[C@H](CO)[C@@H](O)[C@H]2O)cc1` [NBTI, S-(4-nitrobenzyl)-6-thioinosine, reference compound], in the data set on RAW264.7 cells (10 µM NBTI 15 min prior to cordycepin), the “effect of pre-treatment on the inhibitory effect of cordycepin on inflammatory gene expression” value is given as “inhibit the inhibitory effect of cordycepin”.
With `Nc1ncnc2c1c(I)cn2[C@@H]1O[C@H](CO)[C@@H](O)[C@H]1O` [ITu, 5-iodotubericidin, reference compound], the “effect of pre-treatment on the inhibitory effect of cordycepin on inflammatory gene expression” value in the data set with RAW264.7 cells (100 nM ITu 15 min prior to cordycepin) is reported as “inhibit the inhibitory effect of cordycepin”.
